From US8501746B2, “Organic compounds” (Xenon Pharmaceuticals Inc., priority 2006, dated 2013)

Experiments:
[1] = target: T1, stearoyl-CoA desaturase (SCD1) (Mus musculus, UniProt P13516); assay: SCD microsomal assay: release of 3H2O from [9,10-3H]stearoyl-CoA in mouse liver microsomes; assay type: biochemical; conditions: 15 min incubation, 25° C.
T1 construct: Reactions are started by adding 50 μL of microsomes (1.25 mg/mL); from tissue; host or cells: liver microsomes of male ICR outbred mice on a high-carbohydrate, low-fat diet
T1 sequence (P13516 1-355): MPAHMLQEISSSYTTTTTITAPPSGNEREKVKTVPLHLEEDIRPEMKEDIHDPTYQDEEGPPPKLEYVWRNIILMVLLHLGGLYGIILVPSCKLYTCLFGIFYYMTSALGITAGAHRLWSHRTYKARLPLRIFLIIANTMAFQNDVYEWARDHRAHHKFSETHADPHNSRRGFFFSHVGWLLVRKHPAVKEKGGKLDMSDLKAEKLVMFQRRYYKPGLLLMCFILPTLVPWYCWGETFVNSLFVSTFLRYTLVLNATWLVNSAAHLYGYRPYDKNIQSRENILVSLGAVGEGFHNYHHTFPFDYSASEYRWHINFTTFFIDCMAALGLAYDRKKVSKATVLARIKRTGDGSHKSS
Method: Measuring Stearoyl-CoA Desaturase Inhibition Activity of a Test Compound Using Mouse Liver Microsomes
Livers are immediately rinsed with cold 0.9% NaCl solution, weighed and minced with scissors. All procedures are performed at 4° C. unless specified otherwise. Livers are homogenized in a solution (1/3 w/v) containing 0.25 M sucrose, 62 mM potassium phosphate buffer (pH 7.0), 0.15 M KCl, 15 mM N-acetylcysteine, 5 mM MgCl2, and 0.1 mM EDTA using 4 strokes of a Potter-Elvehjem tissue homogenizer. The homogenate is centrifuged at 10,400×g for 20 min to eliminate mitochondria and cellular debris. The supernatant is filtered through a 3-layer cheesecloth and centrifuged at 105,000×g for 60 min. The microsomal pellet is gently resuspended in the same homogenization solution with a small glass/teflon homogenizer and stored at −70° C. The absence of mitochondrial contamination is enzymatically assessed. The protein concentration is measured using bovine serum albumin as the standard.
Incubation of Mouse Liver Microsomes with Test Compounds:
Desaturase activity is measured as the release of ^3H2O from [9,10-^3H]stearoyl-CoA. Reactions per assay point conditions are as follows: 2 μL 1.5 mM stearoyl-CoA, 0.25 μL 1 mCi/mL ^3H stearoyl CoA, 10 μL 20 mM NADH, 36.75 μL 0.1 M PK buffer (K2HPO4/NaH2PO4, pH 7.2). The test compound or control solution is added in a 1 μL volume. […] The plates are mixed and after 15 min incubation on a heating block (25° C.), the reactions are stopped by the addition of 10 μL 60% PCA. An aliquot of 100 μL is then transferred to a filter plate pretreated with charcoal and the plate centrifuged at 4000 rpm for 1 minute. The flow through containing the ^3H2O released by the SCD1 desaturation reaction is added to scintillation fluid and the radioactivity measured in a Packard TopCount. The data is analysed to identify the IC50 for test compounds and reference compounds.
The activity was defined in terms of % SCD enzyme activity remaining at the desired concentration of the test compound or as the IC50 concentration.

`Cc1nc(-n2ccc(OCC3CC3)cc2=O)sc1C(=O)NCc1ccccc1` [Example 1.1, N-Benzyl-2-(4-(cyclopropylmethoxy)-2-oxopyridin-1(2H)-yl)-4-methylthiazole-5-carboxamide] gave an IC50 [1] of 400 nM and a melting point of 218 to 220 °C.

`Cc1nc(-n2ccc(OCc3ccccc3)cc2=O)sc1C(=O)NCc1ccc(Cl)nc1` [Example 22.19, 2-(4-(Benzyloxy)-2-oxopyridin-1(2H)-yl)-N-((6-chloropyridin-3-yl)methyl)-4-methylthiazole-5-carboxamide] gave an IC50 [1] of 50 nM.

Work on `Cc1nc(-n2ccc(O)cc2=O)sc1C(=O)NCc1ncco1` [Example 1.22, 2-(4-Hydroxy-2-oxopyridin-1(2H)-yl)-4-methyl-N-(oxazol-2-ylmethyl)thiazole-5-carboxamide] yielded an IC50 [1] of 430 nM.

With `Cc1cc(-n2ccc(O)cc2=O)sc1C(=O)NCc1cccnc1` [Example 7.6, 5-(4-Hydroxy-2-oxopyridin-1(2H)-yl)-3-methyl-N-(pyridin-3-ylmethyl)thiophene-2-carboxamide] the IC50 [1] was 800 nM and the melting point was 110 °C (dec.).

Work on `Cc1nc(-n2ccccc2=O)sc1C(=O)NCc1ccc(F)cc1` [Example 3.11, N-(4-Fluorobenzyl)-4-methyl-2-(2-oxopyridin-1(2H)-yl)thiazole-5-carboxamide] yielded an IC50 [1] of 230 nM and a melting point of 170 to 172 °C.

`Cc1nc(-n2cccc(C(F)(F)F)c2=O)sc1C(=O)NCc1ccccc1` [Example 3.5, N-Benzyl-4-methyl-2-(2-oxo-3-(trifluoromethyl)pyridin-1(2H)-yl)thiazole-5-carboxamide] gave an IC50 [1] of 150 nM and a melting point of 203 to 204 °C.

With `Cc1nc(-n2ccc(OCc3c(C)noc3C)cc2=O)sc1C(=O)NCc1ccccc1` [Example 21.13, N-benzyl-2-(4-((3,5-dimethylisoxazol-4-yl)methoxy)-2-oxopyridin-1(2H)-yl)-4-methylthiazole-5-carboxamide] the IC50 [1] was 180 nM.

Work on `COc1ccn(-c2nc(C)c(C(=O)NCc3ccccc3)s2)c(=O)c1` [Example 1.2, N-Benzyl-2-(4-methoxy-2-oxopyridin-1(2H)-yl)-4-methylthiazole-5-carboxamide] yielded an IC50 [1] of 90 nM and a melting point of 205 to 208 °C.

In the case of `Cc1nc(-n2ccc(OCc3ccccc3)cc2=O)[nH]c1C(=O)NCc1ccccc1` [Example 1.7, N-Benzyl-2-(4-(benzyloxy)-2-oxopyridin-1(2H)-yl)-4-methyl-1H-imidazole-5-carboxamide], the IC50 [1] is reported as 220 nM and the melting point is reported as 183 to 184 °C.

In the case of `Cc1cc(-n2ccc(OCc3ccccc3)cc2=O)oc1C(=O)NCc1ccccc1` [Example 3.19, N-Benzyl-5-(4-(benzyloxy)-2-oxopyridin-1(2H)-yl)-3-methylfuran-2-carboxamide], the IC50 [1] is reported as 5700 nM and the melting point is reported as 191 to 192 °C.

`Cc1nc(-n2ccc3c(O)cccc3c2=O)sc1C(=O)NCc1ccccc1` [Example 7.1, N-Benzyl-2-(5-hydroxy-1-oxoisoquinolin-2(1H)-yl)-4-methylthiazole-5-carboxamide] gave an IC50 [1] of 30 nM and a melting point of 218 to 221 °C.

In the case of `Cc1nc(-n2ccc(N3CCNC3=O)cc2=O)sc1C(=O)NCc1ccccc1` [Example 26, N-Benzyl-4-methyl-2-(2-oxo-4-(2-oxoimidazolidin-1-yl)pyridin-1(2H)-yl)thiazole-5-carboxamide], the melting point is reported as > 300 °C.

Work on `Cc1nc(-n2ccc(-c3ccccc3)cc2=O)sc1C(=O)NCc1ccccc1` [Example 1, N-benzyl-4-methyl-2-(2-oxo-4-phenylpyridin-1(2H)-yl)thiazole-5-carboxamide] yielded a melting point of 235 to 237 °C.

Work on `Cc1nc(-n2ccccc2=O)sc1C(=O)NCc1cccnc1` [Example 3.16, 4-Methyl-2-(2-oxopyridin-1(2H)-yl)-N-(pyridin-3-ylmethyl)thiazole-5-carboxamide] yielded a melting point of 218 to 220 °C.

`Cc1nc(-n2ccc(OCc3cccnc3)cc2=O)sc1C(=O)NCc1ccccc1` [Example 6, N-Benzyl-4-methyl-2-(2-oxo-4-(pyridin-3-ylmethoxy)pyridin-1(2H)-yl)thiazole-5-carboxamide] gave a melting point of 214 to 216 °C.

`O=C(NCc1ccccc1)c1csc(-n2ccc(OCc3ccccc3)cc2=O)c1` [Example 8, N-Benzyl-5-(4-(benzyloxy)-2-oxopyridin-1(2H)-yl)thiophene-3-carboxamide] showed a melting point of 162 to 163 °C.

In the case of `COc1ccn(-c2nc(C)c(C(=O)NCc3ccc(F)c(F)c3)s2)c(=O)c1` [Example 9.11, N-(3,4-Difluorobenzyl)-2-(4-methoxy-2-oxopyridin-1(2H)-yl)-4-methylthiazole-5-carboxamide], the melting point is reported as 183 to 185 °C.

For `Cc1nc(-n2ccc(OCc3ccc(F)cc3)cc2=O)sc1C(=O)O` [Example 13.7, 2-(4-(4-Fluorobenzyloxy)-2-oxopyridin-1(2H)-yl)-4-methylthiazole-5-carboxylic acid], the melting point was > 300 °C.
